Experimental data from patent US20160287553A1, “TRANSLATION INHIBITORS IN HIGH-DOSE CHEMO- AND/OR HIGH-DOSE RADIOTHERAPY” (DEUTSCHES KREBSFORSCHUNGSZENTRUM, priority 2013, published 2016).
Entries after “also recorded” stand apart in the source; their conditions may differ.

Experiments:
[1] = test system: DND-41 (T cell leukemia), p53 mutated; assay: Etoposide-induced cell death in DND-41; format: cell-based, human; settings: DND-41 (FIG. 5a)
Description: (§1) DNA fragmentation was determined by FACS.
Since Roc-A-mediated protection of non-malignant cells from DNA-damage-induced cell death is largely p53-dependent, we predicted that Roc-A would not protect cancer cells which have non-functional p53. […] 1997; 19: 243-253), Reh (Zhou et al, loc cit.), SKW6.4 (Barbarotto et al., J Cell Biochem. 2008; 104: 595-605) and NCI-H209 (Fujita et al. Int J Oncol. 1999; 15: 927-934) which have a WT p53 protein.

[2] = test system: ERK; settings: Polier et al., op. cit.; cited from earlier work
[3] = test system: murine hematopoietic stem and progenitor cells (HSPCs); assay: Etoposide-induced apoptosis in hematopoietic stem and progenitor cells; format: cell-based, mouse; settings: HSPCs (FIG. 1c)
Description: as §1
To perform lineage depletion, bone marrow cells were incubated on ice for 40 minutes with rat monoclonal antibodies against common epitopes expressed on mature blood and bone marrow cells (CD11b (M1/70), Gr-1 (RB6.8C5), CD4 (GK1.5), CD8a (53.6.7), Ter119 (Ter119) and B220 (RA3-6B2)). Subsequently, cells were washed and incubated for 15 minutes on ice with anti-rat IgG-coated Dynabeads (4.5 μm supermagnetic polystyrene beads, Invitrogen), 1 ml of beads per 3×10^8 bone marrow cells. Cells expressing lineage markers were depleted using a magnet and the remaining lineage-negative cells were isolated and washed. To provide optimal conditions for HSPCs in downstream experiments lineage-negative hematopoietic stem and progenitor-enriched cells were cultured in StemPro®-34 serum-free medium (Invitrogen, Darmstadt, Germany) supplemented with nutrient supplement (Invitrogen, Darmstadt, Germany) as well as recombinant TPO (50 ng/ml, (Peprotech, Hamburg, Germany)), SCF (50 ng/ml, (Peprotech, Hamburg, Germany)) and Flt3-ligand (50 ng/ml, (Peprotech, Hamburg, Germany)).
Next, we asked whether Roc-A could also protect other normal primary cells from DNA damage-induced toxicity. […]

[4] = test system: p53 protein synthesis; assay: Metabolic pulse-labeling and immunoprecipitation of p53; format: cell-based, human; settings: T cells, after Etoposide treatment, pulse-labeling (FIG. 6c)
Description: Subsequently, cells were washed in ice-cold PBS, lysed in IP buffer (20 mM Tris-HCl, […], 2 mM EDTA, 1% Triton X-100, protease inhibitors) and centrifuged (10,000 g, 20 min) to clear lysates. Aliquots were taken for input control and lysates were incubated overnight with sepharose-coupled protein A beads, anti-p53 antibody (FL-393; Santa Cruz, Heidelberg, Germany) or isotype control antibody (Sigma-Aldrich, Munich, Germany). Two wash-steps with IP buffer preceded boiling of beads in denaturing sample buffer at 95° C. for […]. Incorporation of […] into p53 protein was detected by the phosphoimaging system FLA-7000 IR (Fujifilm Europe GmbH, Düsseldorf, Germany).
Thus, Roc-A suppresses DNA-damage-induced upregulation of p53 at the translational level.

[5] = test system: p53-knockdown T cells; assay: Etoposide-induced cell death in p53 siRNA knock-down T cells; format: cell-based, human; settings: Etoposide 50 μM, Roc-A 75 nM, 24 h (FIG. 4a)
Description: as §1
siRNAs specific for p53 mRNA was 5′-[…]tt-3′ (SEQ ID NO: 1; [Applied Biosystems, Darmstadt, Germany]). 1.5×10^7 human peripheral blood T cells were transfected with 2 μM of p53 siRNA or of scrambled siRNA (Qiagen, Hilden, Germany) using Amaxa Human T Cell Nucleofector Kit (Lonza, Basel, Switzerland) according to the manufacturer's instructions. The Amaxa Nucleofector program U-014 was used for transfection.
(§2) To further investigate the role of p53 in Roc-A-mediated protection of T cells against DNA damage-induced apoptosis, we performed a p53 knock-down experiment using a siRNA approach (FIG. 4a, upper panel). […] Therefore, we examined the effect of Roc-A on p53 knock-out (KO) cells.

[6] = test system: Splenocytes from p53+/+ mice; assay: Etoposide-induced cell death in p53 wild-type splenocytes; format: cell-based, mouse; settings: p53-WT splenocytes, 50 μM Etoposide, 75 nM Roc-A (FIG. 4b)
Description: as §1
P53^−/− C57B1/6 mice (B6.Trp53tm1Tyj) were kindly provided by Liu H-K (German Cancer Research Center, Heidelberg, Germany). Spleens of 8-12 week old p53^−/−, and p53^+/+ mice were isolated in parallel, minced and incubated for 30 min in RPMI-1640 medium supplemented with DNase I (50 U/ml) and Collagenase IV (1 mg/ml) at 37° C. and 5% CO2. Splenocytes were filtered by […] cell strainer, washed twice with ice-cold wash buffer (PBS, 0.5% FCS, 2 mM EDTA) and resuspended in Oxford medium (RPMI 1640, 10% FCS, 100 μg/ml Penicillin, 100 μg/ml Streptamycin, 10 mM Hepes, 50 μM β-Mercaptoethanol, 2 mM L-glutamine, 1 mM sodium pyruvate, 100 μM non-essential amino acids) at a concentration of 2×10^6 cells/ml.
as §2

SMILES: COc1ccc([C@@]23Oc4cc(OC)cc(OC)c4[C@]2(O)[C@H](O)[C@H](C(=O)N(C)C)[C@H]3c2ccccc2)cc1 [Roc-A, (1R,2R,3S,3aR,8bS)-1,8b-dihydroxy-6,8-dimethoxy-3a-(4-methoxyphenyl)-N,N-dimethyl-3-phenyl-2,3-dihydro-1H-cyclopenta[b][1]benzofuran-2-carboxamide]
- Protection against Etoposide-induced cell death [1]: did neither protect
- Inhibitory effect on ERK activity / activation [2]: inhibit ERK activation with different efficacies
- Protection against Etoposide-induced apoptosis [3]: protected
- [35S]methionine incorporation into the p53 protein [4]: inhibits p53 protein translation; also recorded: suppressed [^35S]methionine incorporation into the p53 protein
- Etoposide-induced apoptosis in p53-knockdown cells [5]: could still further down-regulate Etoposide-induced apoptosis in p53-knockdown cells
- Protection against Etoposide-induced cell death [6]: protected
